Here are results for three molecules from publication PMC4738305, “Metabolism and Disposition of Aditoprim in Swine, Broilers, Carp and Rats” (Scientific Reports, 2016).

The data set is described as follows: Concentration and elimination of ADP and its metabolites in liver, kidney, muscle, fat/skin after oral ^3H-ADP for 7 d. It is filed as in vivo, swine. As to conditions: for half-life: pig, po; for concentration at 0.25 d / concentration at 1 d / concentration at 3 d / concentration at 7 d / concentration at 14 d: swine, oral, 5 mg/kg b.w. The procedure:
A total of 36 animals from each species (swine n = 24) were randomly assigned to six equal treatment groups and administered a single daily dose of ^3 H-ADP at 5 mg/kg b. w. (0.1 Ci/g) through oral gavage for 7 consecutive days. All the animals were housed on the basis of their group in the cages or aquaria throughout the whole study period. A group of animals was slaughtered through exsanguination under diethyl ether inhalation of anesthesia in the period of 6 h, 1, 3, 7, 14, and 21 d after the administration. The blood samples were immediately collected into the heparinized tubes and was centrifuged at 1920 × g at 4 °C for 10 min to obtain the plasma. The tissues from the heart, liver, spleen, lung, kidney, craw (broilers), stomach, intestine, fat, skin, muscle, thymus, pancreas, bile, bladder, hair (scale for carp), genital gland, adrenal glands, swim bladder (carp), brain, lymph, and bursa (broilers) were carefully excised and collected. The tissues were thoroughly rinsed with the deionized water to remove the residuary blood, blotted to dryness, and finally to perform the homogenization. In order to avoid cross-contamination the dissecting instruments were washed during the tissue procurements. The blank tissues were collected in order to provide control matrices. The total radioactivity levels in each sample were determined through LSC. The samples extracted from the plasma, bile, and tissues of the liver, kidney, muscle, and fat/skin were analyzed through LC/MS-IT-TOF and v. ARC radiometric detection for metabolite profiling. The blank samples were used as control to determine the background radioactivity or the endogenous nondrug-related ions observed within respective matrices or their extracts.
The feces and tissues (2 g) were diluted with a mixture of methanol and chloroform (1:3, v:v; 2 mL/g homogenate). This procedure was carried out in a fume hood for the safety aspects. The pH value was adjusted to 9.0 with NH4OH. The mixture was vortexed and sonicated for 5 min and 10 min, respectively, and finally the samples were centrifuged at 7690 × g for 10 min. The supernatant was aspirated and then transferred into a new centrifuge tube. The obtained pellet was again subjected to the same process of vortex, ultrasonication, extraction, and centrifugation. The combined supernatant was concentrated under a stream of nitrogen in a water bath at 40 °C. The residue was reconstituted with 0.3 mL of methanol–water (1:9, v:v) before the injection into the LC-v. ARC/MS-IT-TOF system for analysis.
ADP and its metabolites in the prepared samples were determined with a v. ARC radiometric detector and a hybrid IT/TOF mass spectrometer connected to the HPLC system (Shimadzu Corp., Kyoto, Japan). The LC system was equipped with a solvent delivery pump (LC-20AD), an auto-sampler (SIL-20AC), a degasser (DGU-20 A 3), a photodiode array detector (SPD-M20A), a communication base module (CBM-20 A), and a column oven (CTO-20AC). The chromatographic separation was achieved by using an Agilent extend-C18 column (2.1 mm × 150 mm, 5 μm) with a gradient mobile phase of A (0.01% ammonia and 5 mM ammonium acetate in water) and B (methanol) at a flow rate of 0.2 mL/min. The column temperature was maintained at 35 °C. Various HPLC methods were performed because of the large number of different metabolites to be analyzed. For the porcine sample, method 1 started at 5% B and increased to 20% B over 35 min, then to 55% B by 60 min, followed by re-equilibration for another 10 min. For the remaining samples, method 2 started at 10% B and increased to 60% B over 30 min, subsequently was maintained at 60% B for an additional 10 min, and then changed to 90% B over 2 min and maintained for 2 min. Afterwards, a re-equilibration step (decreased to 10% B over 1 min and maintained at 10% B for additional 9 min) was followed. For each matrix, more than 98% of the radioactivity injected into the column was eluted during the running time of the gradient program. […]

The mark [1] stands for this setting: swine kidney, after 5 mg/kg b. w. for 7 days, read-out: t1/2 of the individual compound (converted).
The mark [2] stands for this setting: swine liver, after 5 mg/kg b. w. for 7 days, read-out: t1/2 of the individual compound (converted).
Setting [3] is: swine muscle, after 5 mg/kg b. w. for 7 days, read-out: t1/2 of the individual compound (converted).
Where [4] appears, read: tissues (liver, kidney, muscle, fat/skin), 5 mg/kg, swine tissues, read-out: t1/2 of the individual compound, range over tissues.

Where two headings read alike, the source gives them in different places.

`COc1cc(Cc2cnc(N)nc2N)cc(OC)c1N(C)C` [A0, 2,4-Diamino-5-[4-(dimethylamino)-3,5-dimethoxybenzyl] pyrimidine]: the half-life was 80.9 h (swine fat, after 5 mg/kg b. w. for 7 days, read-out: t1/2 of the individual compound (converted)); 80.9 h under setting [1]; 105 h under setting [2]; 38.9 h under setting [3]; 38.9 to 105 h under setting [4]. Further, for the setting “swine liver, kidney, muscle, fat, over the sampling times”, the “share of the sample radioactivity in the detected tissues” value is “more than 42%”. Further, the concentration at 0.25 d stood at 1270 ± 430 ng/g (fat), 19000 ± 8810 ng/g (kidney), 7600 ± 1040 ng/g (liver) and 1490 ± 390 ng/g (muscle). In addition, the concentration at 1 d by setting is: (fat) 510 ± 120 ng/g; (kidney) 4160 ± 2000 ng/g; (liver) 3010 ± 900 ng/g; (muscle) 890 ± 220 ng/g. For the same molecule, the concentration at 3 d (fat) was found to be 330 ± 70 ng/g, the concentration at 3 d (kidney) is 1080 ± 220 ng/g, the concentration at 3 d (liver) came out at 1320 ± 270 ng/g and the concentration at 3 d (muscle) was found to be 380 ± 90 ng/g. The concentration at 7 d is, setting by setting: (fat) 150 ± 30 ng/g; (kidney) 360 ± 90 ng/g; (liver) 820 ± 140 ng/g; (muscle) 70 ± 10 ng/g. In addition, the concentration at 14 d was found to be 110 ± 20 ng/g (kidney) and 240 ± 50 ng/g (liver).

With `CNc1c(OC)cc(Cc2cnc(N)nc2N)cc1OC` [A1, N-monodesmethyl-ADP], the half-life is 21.8 h under setting [1], 25 h under setting [2], 17.5 h under setting [3] and 17.5 to 25 h under setting [4]. In addition, the concentration at 0.25 d runs as follows: (fat) 300 ± 70 ng/g; (kidney) 15400 ± 5300 ng/g; (liver) 4620 ± 850 ng/g; (muscle) 850 ± 250 ng/g. For the same molecule, the concentration at 1 d was found to be 60 ± 10 ng/g (fat), 3430 ± 1250 ng/g (kidney), 1650 ± 330 ng/g (liver) and 150 ± 40 ng/g (muscle). The concentration at 3 d (kidney) came out at 160 ± 40 ng/g, the concentration at 3 d (liver) was determined as 640 ± 110 ng/g and the concentration at 3 d (muscle) amounted to 50 ± 10 ng/g. In addition, the concentration at 7 d (kidney) is 20 ng/g.

For the molecule `COc1cc(Cc2cnc(N)nc2N)cc(OC)c1N` [A2, N-didesmethyl-ADP], the half-life by setting is: (5 mg/kg, kidney and liver of swine and rat, read-out: t1/2 of the individual compound, range over tissues) 10.1 to 38.6 h; under setting [1], 10.1 h; under setting [2], 23.8 h. The concentration at 0.25 d by setting is: (fat) 70 ± 10 ng/g; (kidney) 6360 ± 1040 ng/g; (liver) 2440 ± 480 ng/g; (muscle) 160 ± 40 ng/g. Besides, the concentration at 1 d worked out at 1300 ± 400 ng/g (kidney), 840 ± 110 ng/g (liver) and 50 ± 10 ng/g (muscle). Also, the concentration at 3 d runs as follows: (kidney) 20 ± 10 ng/g; (liver) 310 ± 80 ng/g.
